These results are taken from patent US10940139B2, “Compounds that interact with the Ras superfamily for the treatment of cancers, inflammatory diseases, rasopathies, and fibrotic disease” (Shy Therapeutics LLC, priority 2017, dated 2021).

For one experiment, the target named is Rho-A (Homo sapiens (Human), UniProt P61586). Kind of experiment: Rho inhibition assay (labeled GTP). The class given is binding. Particulars: read-out: Rho-A % Inh.
In the next experiment the target is KRas G12D mutant protein (Homo sapiens (Human), UniProt P01116, G12D). The experiment in a line: Ras GTP binding domain inhibition assay (labeled GTP). The note with it: at 20 μM; read-out: KRas G12D % Inh.
Chain of KRas G12D mutant protein (P01116-2 other isoform, or with tags, fused parts or gaps G12D): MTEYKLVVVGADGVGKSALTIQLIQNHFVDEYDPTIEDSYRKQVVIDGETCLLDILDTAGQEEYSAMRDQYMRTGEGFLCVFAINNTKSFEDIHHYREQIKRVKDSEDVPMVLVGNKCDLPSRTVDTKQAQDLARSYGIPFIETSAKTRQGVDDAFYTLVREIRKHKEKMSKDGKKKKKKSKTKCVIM
The target in another experiment is Rac-1 (Homo sapiens (Human), UniProt P63000). Kind of experiment: Rac inhibition assay (labeled GTP). The class given is binding. The note with it: read-out: Rac-1 % Inh.
The target in experiment [1] is KRas G12D/Q61H double mutant (Homo sapiens (Human), UniProt P01116, G12D/Q61H). The experiment in a line: Ras GTP binding domain inhibition assay (labeled GTP). Particulars: at 20 μM; read-out: KRas G12D Q61H % Inh. The procedure, abridged: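 His-tagged KRas protein (3-10 μg/ml) was captured overnight at 4° C on nickel-coated wells in 50 mM Tris pH 7.5, 1 mM MgCl2, 1 mM DTT. Bound labeled GTP was read by fluorescence after washing.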
Chain of KRas G12D/Q61H double mutant (P01116-2 other isoform, or with tags, fused parts or gaps G12D/Q61H): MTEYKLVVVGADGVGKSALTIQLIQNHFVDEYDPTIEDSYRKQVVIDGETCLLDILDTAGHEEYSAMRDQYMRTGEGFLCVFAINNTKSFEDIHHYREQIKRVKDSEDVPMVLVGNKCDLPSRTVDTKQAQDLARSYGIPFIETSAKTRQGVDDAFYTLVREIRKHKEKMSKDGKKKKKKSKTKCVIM

Chain of Rho-A (P61586 whole entry, the tested form may be a part): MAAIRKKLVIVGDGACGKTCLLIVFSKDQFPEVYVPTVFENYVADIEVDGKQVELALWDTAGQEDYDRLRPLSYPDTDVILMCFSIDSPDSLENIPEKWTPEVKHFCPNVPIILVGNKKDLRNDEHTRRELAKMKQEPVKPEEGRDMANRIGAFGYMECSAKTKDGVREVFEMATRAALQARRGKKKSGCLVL

In the case of `Oc1nc(-c2ccccn2)nc2c(C3CCC3)csc12` [drawing 3797], the inhibition at 20 µM at Rho-A was in the range of 76 to 100%; at KRas G12D mutant protein it was 51 to 75%; at Rac-1 it was 76 to 100%; in experiment [1], 51 to 75%.

In the case of `Oc1nc(-c2ccccn2)nc2c(-c3cc(F)ccc3OC(F)F)csc12` [drawing 3732], the inhibition at 20 µM was in the range of 25 to 50% on Rho-A, 51 to 75% on KRas G12D mutant protein, 51 to 75% on Rac-1 and 25 to 50% in experiment [1].

For `COc1cccc(-c2csc3c(O)nc(-c4ccccn4)nc23)c1` [drawing 3744], the inhibition at 20 µM on Rho-A was in the range of 51 to 75%; at KRas G12D mutant protein, 76 to 100%; at Rac-1 it was 51 to 75%; in experiment [1], 25 to 50%.

For the molecule `Cc1cnccc1-c1csc2c(O)nc(-c3ccccn3)nc12` [drawing 3760], the inhibition at 20 µM at Rho-A lay within 76 to 100%; on KRas G12D mutant protein, 51 to 75%; at Rac-1 it was 76 to 100%; in experiment [1], 51 to 75%.

`Oc1nc(-c2ccccn2)nc2c(-c3ccccc3F)csc12` [drawing 3740]: the inhibition at 20 µM on Rho-A lay in the range of 76 to 100%; at KRas G12D mutant protein, 51 to 75%; on Rac-1, 76 to 100%; in experiment [1], 51 to 75%.

Turning to `Oc1nc(-c2ccccn2)nc2sc3c(c12)CCCNC3` [drawing 3724], the inhibition at 20 µM on Rho-A was in the range of 51 to 75%; on KRas G12D mutant protein, 51 to 75%; at Rac-1, 76 to 100%; in experiment [1], 25 to 50%.

On to `O=C(CCc1cncnc1)Nc1nc(-c2ccccn2)nc2sccc12` [drawing 3763], for which the inhibition at 20 µM at Rho-A was in the range of 76 to 100%; on KRas G12D mutant protein, 51 to 75%; at Rac-1, 76 to 100%; in experiment [1], 51 to 75%.

With `Oc1cccc(-c2csc3c(O)nc(-c4ccccn4)nc23)n1` [drawing 3817], the inhibition at 20 µM on Rho-A fell in the range of 76 to 100%; at KRas G12D mutant protein it was 51 to 75%; at Rac-1 it was 76 to 100%; in experiment [1], 51 to 75%.

With `Oc1nc(-c2ccccn2)nc2c1c(-c1ccccc1)nn2-c1ccccn1` [drawing 3857], the inhibition at 20 µM (on Rho-A; on KRas G12D mutant protein; at Rac-1; in experiment [1]) was 51 to 75% in each case.

In the case of `COc1ccc(COC[C@H]2OC(c3csc4c(=O)[nH]c(-c5ccccn5)nc34)[C@H](O)[C@@H]2O)cc1` (stereo partly drawn), the inhibition at 20 µM on Rho-A lay within 76 to 100%; at KRas G12D mutant protein, 25 to 50%; at Rac-1 it was 51 to 75%; in experiment [1] it was 25 to 50%.

On to `O=C(c1csc2c(O)nc(-c3ccccn3)nc12)N1CCOC(c2ccccc2Cl)C1` (stereo not drawn) [drawing 3658], for which the inhibition at 20 µM at Rho-A was 76 to 100%; on KRas G12D mutant protein, 25 to 50%; on Rac-1, 51 to 75%; in experiment [1] it was 51 to 75%.

For the molecule `COc1nc(-c2cn(C)cn2)nc2sc(-c3ccncc3)c(-c3ccccc3)c12` [drawing 3849], the inhibition at 20 µM fell in the range of 51 to 75% on Rho-A, 25 to 50% at KRas G12D mutant protein, 25 to 50% on Rac-1 and 25 to 50% in experiment [1].

`CC(C)Cc1csc2c(O)nc(-c3ccccn3)nc12` [drawing 3813]: the inhibition at 20 µM on Rho-A fell in the range of 76 to 100%; at KRas G12D mutant protein, 51 to 75%; at Rac-1, 76 to 100%; in experiment [1] it was 51 to 75%.

Turning to `O=C(COCc1cccnc1)Nc1nc(-c2ccccn2)nc2sccc12` [drawing 3701], the inhibition at 20 µM on Rho-A lay within 76 to 100%; on KRas G12D mutant protein, 51 to 75%; on Rac-1 it was 76 to 100%; in experiment [1], 51 to 75%.

Take `Oc1nc(-c2ccccn2)nc2c(-c3ccc(OC(F)F)cc3F)csc12` [drawing 3748]: the inhibition at 20 µM fell in the range of 76 to 100% on Rho-A, 51 to 75% on KRas G12D mutant protein, 76 to 100% at Rac-1 and 51 to 75% in experiment [1].

For the molecule `Oc1nc(-c2ccccn2)nc2c(-c3ccccc3Cl)csc12` [drawing 3626], the inhibition at 20 µM fell in the range of 76 to 100% on Rho-A, 25 to 50% at KRas G12D mutant protein, 76 to 100% at Rac-1 and 51 to 75% in experiment [1].

For the molecule `Oc1nc(-c2ccccn2)nc2sccc12` [drawing 3624], the inhibition at 20 µM was in the range of 76 to 100% on Rho-A, 25 to 50% on KRas G12D mutant protein, 76 to 100% at Rac-1 and 51 to 75% in experiment [1].

As for `O=C(c1csc2c(O)nc(-c3ccccn3)nc12)N1CC2CC1CN2c1ccccc1` (stereo not drawn) [drawing 3710], the inhibition at 20 µM on Rho-A was in the range of 76 to 100%; on KRas G12D mutant protein, 51 to 75%; on Rac-1, 76 to 100%; in experiment [1], 76 to 100%.

`COc1nc(-c2ccccn2)nc2c1c(-c1ccccc1)nn2-c1ccccn1` [drawing 3858]: the inhibition at 20 µM is 76 to 100% on Rho-A, 51 to 75% at KRas G12D mutant protein, 76 to 100% on Rac-1 and 51 to 75% in experiment [1].

For `O=C(c1csc2c(O)nc(-c3ccccn3)nc12)N1CCC(c2cccc(O)c2)C1` (stereo not drawn) [drawing 3712], the inhibition at 20 µM (on Rho-A; at KRas G12D mutant protein; on Rac-1; in experiment [1]) was 76 to 100% in each case.

`COc1ccc(-c2csc3c(O)nc(-c4ccccn4)nc23)c(C)c1` [drawing 3753]: the inhibition at 20 µM was in the range of 76 to 100% on Rho-A, 51 to 75% at KRas G12D mutant protein, 76 to 100% on Rac-1 and 51 to 75% in experiment [1].

With `O=C(COCc1ccncc1)Nc1nc(-c2ccccn2)nc2sccc12` [drawing 3700], the inhibition at 20 µM at Rho-A lay within 76 to 100%; on KRas G12D mutant protein, 51 to 75%; on Rac-1 it was 76 to 100%; in experiment [1], 51 to 75%.

For the molecule `Oc1nc(-c2ccccn2)nc2c(-c3cc(CN4CCCC4)ccc3F)csc12` [drawing 3821], the inhibition at 20 µM at Rho-A lay within 76 to 100%; at KRas G12D mutant protein it was 76 to 100%; at Rac-1, 76 to 100%; in experiment [1] it was 51 to 75%.

Regarding `Cc1sc2c(O)nc(-c3ccccn3)nc2c1-c1ccncc1` [drawing 3816], the inhibition at 20 µM on Rho-A was 25 to 50%; at KRas G12D mutant protein, 51 to 75%; at Rac-1, 51 to 75%; in experiment [1], 51 to 75%.

As to `Cc1sc2c(O)nc(-c3ccccn3)nc2c1-c1ccccc1Cl` [drawing 3833], the inhibition at 20 µM at Rho-A is 76 to 100%; on KRas G12D mutant protein, 51 to 75%; at Rac-1, 76 to 100%; in experiment [1] it was 51 to 75%.

Take `Oc1nc(-c2ccccn2)nc2c(-c3ccc(F)cc3F)csc12` [drawing 3743]: the inhibition at 20 µM (at Rho-A; on KRas G12D mutant protein; on Rac-1; in experiment [1]) was 51 to 75% in each case.

As to `OCC1(c2ccc(-c3csc4c(O)nc(-c5ccccn5)nc34)cc2)CC1` [drawing 3758], the inhibition at 20 µM at Rho-A lay in the range of 76 to 100%; on KRas G12D mutant protein, 76 to 100%; at Rac-1, 76 to 100%; in experiment [1], 51 to 75%.

For the molecule `COc1cnc(-c2nccn2C)nc1O` [drawing 3831], the inhibition at 20 µM (on Rho-A; at KRas G12D mutant protein; at Rac-1; in experiment [1]) was 76 to 100% throughout.

Consider `COc1c(O)nc(-c2ccccn2)nc1Oc1cccc(C(F)(F)F)c1` [drawing 3875], for which the inhibition at 20 µM lay within 76 to 100% on Rho-A, 76 to 100% on KRas G12D mutant protein, 51 to 75% at Rac-1 and 51 to 75% in experiment [1].

Turning to `COCC(C)Nc1nc(-c2ccccn2)nc2sc(-c3ccncc3)c(-c3ccccc3)c12` (stereo not drawn) [drawing 3859], the inhibition at 20 µM on Rho-A lay in the range of 51 to 75%; at KRas G12D mutant protein it was 25 to 50%; on Rac-1 it was 51 to 75%; in experiment [1], 51 to 75%.

Turning to `CC1CN(c2ccccc2)CCN1C(=O)c1csc2c(O)nc(-c3ccccn3)nc12` (stereo not drawn) [drawing 3650], the inhibition at 20 µM at Rho-A lay in the range of 76 to 100%; on KRas G12D mutant protein it was 76 to 100%; at Rac-1, 76 to 100%; in experiment [1], 51 to 75%.

For `COCCNc1nc(-c2cn(C)cn2)nc2sc(-c3ccncc3)c(-c3ccccc3)c12` [drawing 3848], the inhibition at 20 µM at Rho-A lay within 76 to 100%; at KRas G12D mutant protein it was 51 to 75%; on Rac-1 it was 76 to 100%; in experiment [1], 76 to 100%.

On to `Cn1nnc2ccc(-c3csc4c(O)nc(-c5ccccn5)nc34)cc21` [drawing 3733], for which the inhibition at 20 µM fell in the range of 51 to 75% at Rho-A, 51 to 75% on KRas G12D mutant protein, 76 to 100% at Rac-1 and 51 to 75% in experiment [1].

Turning to `COc1nc(-c2ccccn2)nc2c(C3CCCC3)csc12` [drawing 3789], the inhibition at 20 µM at Rho-A was 51 to 75%; at KRas G12D mutant protein, 25 to 50%; on Rac-1 it was 76 to 100%; in experiment [1], 51 to 75%.

Consider `COc1cnc(-c2cnc[nH]2)nc1O` [drawing 3834], for which the inhibition at 20 µM at Rho-A was 76 to 100%; on KRas G12D mutant protein, 51 to 75%; on Rac-1 it was 76 to 100%; in experiment [1], 51 to 75%.

Consider `Oc1nc(-c2ccccn2)nc2c(CC3CCNCC3)csc12` [drawing 3805], for which the inhibition at 20 µM fell in the range of 76 to 100% at Rho-A, 51 to 75% on KRas G12D mutant protein, 51 to 75% at Rac-1 and 51 to 75% in experiment [1].
